Read-outs that look alike come from different tables or passages of the source. Residues, ends and D or L forms follow the SMILES beside them. No end group written: not given here. *: point of attachment. NHhexadecyl = CCCCCCCCCCCCCCCCN*
Experiments:
S. aureus (ATCC12600) = format: cell-based, Staphylococcus aureus
Procedure: (§1) The MIC of arginine-based peptides was assessed using the microbroth dilution approach. Our in vitro screening included a panel of Gram-negative bacteria, Escherichia coli (ATCC 25922 and enterohaemorrhagic O157:H7) and Pseudomonas aeruginosa (PA01 and the drug-resistant strain NCTC 13437), and Gram-positive bacteria (Staphylococcus aureus ATCC 12600). Five-millilitre overnight cultures in Lysogeny broth, prepared from single isolated colonies, were diluted to 5×10^6 c.f.u. ml^−1 mid-log phase in Mueller–Hinton (MH) broth. Next, peptide concentrations (0 to 1 mM) were serially diluted twofold in 96-well plates and incubated overnight at 37 °C with the tested bacterial strains. In each case, the MIC was determined as the lowest peptide concentration at which no detectable bacterial growth was observed, employing an absorbance-based assay using a Tecan Spark® multimode plate reader. Subsequently, 10 µl aliquots from each peptide dilution were transferred to MH agar (1.5%) plates to determine the minimum bactericidal concentration (MBC) which was assessed by establishing at which concentration no visible growth of bacteria (assessed via colony formation) on the plate was observed.

P. aeruginosa (PA01) [1] = format: cell-based, Pseudomonas aeruginosa; conditions: for MIC: 24 h
Procedure: as §1

E. coli (ATCC25922) = format: cell-based, Escherichia coli
Procedure: as §1

E. coli (O157:H7) = format: cell-based, Escherichia coli; conditions: for MBC: 10 µl aliquots plated on MH agar, no visible colonies; for MIC: MH broth, 5×10^6 cells, 24 h, 37 °C, absorbance 600 nm, triplicate
Procedure: as §1

S. aureus (12600) = format: cell-based, Staphylococcus aureus; conditions: for MIC, Control: control without serum or trypsin; for MIC, Trypsin: peptide incubated with 5 µM SGMT trypsin in 50 mM Tris-HCl, 1 mM CaCl2, pH 7.6, 24 h at 37 °C before MIC; for MIC, 20% human serum: peptide incubated with 20% human serum 24 h at 37 °C before MIC; for MIC, 50% human serum: peptide incubated with 50% human serum 24 h at 37 °C before MIC
Procedure: as §1
(§2) The antimicrobial activity and structural stability of arginine-rich peptides were evaluated in the presence of human serum (20% and 50 %) and 5 µM Sequencing Grade Modified Trypsin (SGMT, Promega). Briefly, fresh human blood was collected in EDTA tubes and allowed to clot at room temperature for 1 h. Serum was then collected following centrifugation at 2,000 r.p.m. for 10 min at 4 °C. Peptides were incubated with 20%, 50% human serum and 5 µM SGMT in 50 mM Tris-HCl buffer (1 mM CaCl₂, pH 7.6) for 24 h at 37 °C. After the incubation period, the solutions were further incubated with E. coli (ATCC 25922 and O157:H7), P. aeruginosa (PA01, NCTC13437) and S. aureus (ATCC12600), and the MIC was assessed as described in the ‘Antibacterial assessment’ section. Additionally, the samples were analysed using electrospray ionization MS to monitor structural changes based on the molecular weight of the peptides.

E. coli (25922) = format: cell-based, Escherichia coli; conditions: for MIC, Control: control without serum or trypsin; for MIC, Trypsin: peptide incubated with 5 µM SGMT trypsin in 50 mM Tris-HCl, 1 mM CaCl2, pH 7.6, 24 h at 37 °C before MIC; for MIC, 20% human serum: peptide incubated with 20% human serum 24 h at 37 °C before MIC; for MIC, 50% human serum: peptide incubated with 50% human serum 24 h at 37 °C before MIC
Procedure: as §1, §2

P. aeruginosa (PA01) [2] = format: cell-based, Pseudomonas aeruginosa; conditions: for MIC, Control: control without serum or trypsin; for MIC, Trypsin: peptide incubated with 5 µM SGMT trypsin in 50 mM Tris-HCl, 1 mM CaCl2, pH 7.6, 24 h at 37 °C before MIC; for MIC, 20% human serum: peptide incubated with 20% human serum 24 h at 37 °C before MIC; for MIC, 50% human serum: peptide incubated with 50% human serum 24 h at 37 °C before MIC
Procedure: as §1, §2

[3] = tested on: P. aeruginosa (NCTC13437); format: cell-based, Pseudomonas aeruginosa; conditions: P. aeruginosa NCTC13437 (drug-resistant); for MBC: 10 µl aliquots plated on MH agar, no visible colonies; for MIC: MH broth, 5×10^6 cells, 24 h, 37 °C, absorbance 600 nm, triplicate
Procedure: as §1

E. coli ATCC 25922 = experiment: Cytoplasmic membrane depolarization, DiSC3(5); format: cell-based, Escherichia coli; conditions: peptide at 2× MIC or 1,000 µM, positive control Triton X-100
Procedure: The dye 3,3′-dipropylthiadicarbocyanine iodide DiSC3(5) was employed to evaluate perturbation of the bacterial membrane by our designed arginine-rich peptides. For this, a black 96-well microtiter plate containing 150 µl E. coli cells (OD600=0.5) in MH broth per well was incubated with 0.5 µM DiSC3(5) in 5 mM HEPES buffer (pH 7.4, supplemented with 5 mM glucose and 0.1 M KCl) for 15 min to allow for fluorescence quenching. Then, 2× MIC or 1 mM peptide was added, and changes in fluorescence were monitored in real-time (λex=622 nm, λem=670 nm) using a microplate reader.

L929 fibroblasts = format: cell-based; conditions: 24 h
Procedure: The toxicity screening of arginine-rich peptides was conducted in two cell types: human red blood cells (hRBCs) and L929 fibroblasts. The peptide-induced lysis of hRBCs was estimated based on the release of haemoglobin into solution, following a previously established protocol with slight modifications. Briefly, fresh human blood was collected from a healthy donor. To isolate hRBCs from plasma, the blood was centrifuged at 2,000 r.p.m. for 10 min at 4 °C, and the cells were carefully resuspended in 0.5% suspension buffer. After, they were added to a 96-well plate containing various concentrations of peptides diluted in PBS. After incubation for 1 h at 37 °C, cells were spun at 2,000 r.p.m. for 10 min at 4 °C to pellet cell debris and the supernatant collected and measured at OD414. The data was calculated as the % haemolysis relative to the positive control (cells treated with 1% Triton X-100). The toxicity screening using L929 fibroblasts was based on the metabolic activity of cells using an MTS colourimetric assay (Fig. S2). […] The absorbance was measured at OD490 using a Tecan Spark multimode plate reader. The quantification of viable cells was expressed as a % and determined by comparing peptide-treated groups with control cells grown in their absence. […]

[4] = tested on: Gram-positive and Gram-negative bacteria; format: cell-based; conditions: span of MIC and MBC against both Gram-positive and Gram-negative bacteria, Table 2
Procedure: as §1

E. coli = experiment: Live/dead SYTO 9/PI fluorescence imaging; format: cell-based, Escherichia coli; conditions: mid-log phase E. coli, 2× MIC; red = damaged membranes
[5] = target: T1, Sequencing Grade Modified Trypsin (Sus scrofa, UniProt P00761); experiment: Stability with trypsin by LC-MS; format: in vitro ADME; conditions: 5 µM SGMT trypsin, 50 mM Tris-HCl, 1 mM CaCl2, pH 7.6, 24 h, 37 °C; read-out LC-MS (ESI)
T1 construct: purchased Promega
T1 sequence (P00761 9-231): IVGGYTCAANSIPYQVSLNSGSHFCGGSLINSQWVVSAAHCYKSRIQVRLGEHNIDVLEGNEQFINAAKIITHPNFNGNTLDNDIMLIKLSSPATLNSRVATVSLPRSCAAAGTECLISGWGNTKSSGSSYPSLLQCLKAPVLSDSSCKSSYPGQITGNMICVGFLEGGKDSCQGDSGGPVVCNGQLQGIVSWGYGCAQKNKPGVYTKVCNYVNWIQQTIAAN
Procedure: as §2

[6] = S. aureus ATCC12600, 10 µl aliquots plated on MH agar, no visible colonies
[7] = S. aureus ATCC12600, MH broth, 5×10^6 cells, 24 h, 37 °C, absorbance 600 nm, triplicate
[8] = P. aeruginosa PA01, 10 µl aliquots plated on MH agar, no visible colonies
[9] = P. aeruginosa PA01, MH broth, 5×10^6 cells, 37 °C, absorbance 600 nm, triplicate
[10] = E. coli ATCC25922, 10 µl aliquots plated on MH agar, no visible colonies
[11] = E. coli ATCC25922, MH broth, 5×10^6 cells, 24 h, 37 °C, absorbance 600 nm, triplicate

Molecule | MBC (S. aureus (ATCC12600); [6]) | MIC (S. aureus (ATCC12600); [7]) | MBC (P. aeruginosa (PA01) [1]; [8]) | MIC (P. aeruginosa (PA01) [1]; [9]) | MBC (E. coli (ATCC25922); [10]) | MIC (E. coli (ATCC25922); [11]) | MBC (E. coli (O157:H7)) | MIC (E. coli (O157:H7)) | MIC, Control (S. aureus (12600)) | MIC, Trypsin (S. aureus (12600)) | MIC, 20% human serum (S. aureus (12600)) | MIC, 50% human serum (S. aureus (12600)) | MIC, Control (E. coli (25922)) | MIC, Trypsin (E. coli (25922)) | MIC, 20% human serum (E. coli (25922)) | MIC, 50% human serum (E. coli (25922)) | MIC, Control (P. aeruginosa (PA01) [2]) | MIC, Trypsin (P. aeruginosa (PA01) [2]) | MIC, 20% human serum (P. aeruginosa (PA01) [2]) | MIC, 50% human serum (P. aeruginosa (PA01) [2]) | further results
RRRRVVVV [Peptide R4V4] | >1,000/>1,000 μM | >1,000/>1,000 μM | >1,000/>1,000 μM | >1,000/>1,000 μM | 1,000/>1,000 μM | 1,000/>1,000 μM | 1,000/>1,000 μM | 1,000/>1,000 μM | >1,000 μM | >1,000 μM | >1,000 μM | >1,000 μM | 1,000 μM | >1,000 μM | 1,000 μM | >1,000 μM | >1,000 μM | >1,000 μM | >1,000 μM | >1,000 μM | –
RRARSAVAS [RRARSAVAS] | >1,000/>1,000 μM | >1,000/>1,000 μM | >1,000/>1,000 μM | >1,000/>1,000 μM | >1,000/>1,000 μM | >1,000/>1,000 μM | >1,000/>1,000 μM | >1,000/>1,000 μM | >1,000 μM | >1,000 μM | >1,000 μM | >1,000 μM | >1,000 μM | >1,000 μM | >1,000 μM | >1,000 μM | >1,000 μM | >1,000 μM | >1,000 μM | >1,000 μM | MBC [3]: >1,000/>1,000 μM; MIC [3]: >1,000/>1,000 μM
CCCCCCCCCCCCCCCCNC(=O)[C@H](Cc1ccccc1)NC(=O)[C@H](Cc1ccccc1)NC(=O)[C@H](Cc1ccccc1)NC(=O)[C@H](Cc1ccccc1)NC(=O)[C@H](CCCNC(=N)N)NC(=O)[C@H](CCCNC(=N)N)NC(=O)[C@H](CCCNC(=N)N)NC(=O)[C@@H](N)CCCNC(=N)N [Peptide R4F4-C16] (H-RRRRFFFF-NHhexadecyl; N-terminus and C-terminus assumed) | >1,000/>1,000 μM | >1,000/>1,000 μM | >1,000/>1,000 μM | >1,000/>1,000 μM | 1,000/>1,000 μM | 1,000/>1,000 μM | >1,000/>1,000 μM | >1,000/>1,000 μM | >1,000 μM | >1,000 μM | >1,000 μM | >1,000 μM | 1,000 μM | >1,000 μM | 1,000 μM | >1,000 μM | >1,000 μM | >1,000 μM | >1,000 μM | >1,000 μM | Cytoplasmic membrane depolarization, DiSC3(5) fluorescence (E. coli ATCC 25922): Greater effects; EC50 (L929 fibroblasts): 70 µM; MIC and MBC values over all tested strains [4]: > 1,000 µM
RRRRAAAA [Peptide R4A4] | >1,000/>1,000 μM | >1,000/>1,000 μM | >1,000/>1,000 μM | >1,000/>1,000 μM | 1,000/>1,000 μM | 1,000/>1,000 μM | >1,000/>1,000 μM | >1,000/>1,000 μM | >1,000 μM | >1,000 μM | >1,000 μM | >1,000 μM | 1,000 μM | >1,000 μM | 1,000 μM | >1,000 μM | >1,000 μM | >1,000 μM | >1,000 μM | >1,000 μM | –
PRRRRFFFF [PR4F4] | – | – | – | – | – | – | – | – | – | – | – | – | – | – | – | – | – | – | – | – | MBC (E. coli (ATCC25922); ATCC25922): 125 µM; MIC (E. coli (ATCC25922); ATCC25922, 24 h): 62.5 µM
Polymyxin B [reference compound] | > 76.8 µM | > 76.8 µM | 4.8 µM | 2.4 µM | 4.8 µM | 2.8 µM | 4.8 µM | 4.8 µM | >76.8 µM | >76.8 µM | >76.8 µM | >76.8 µM | 2.8 µM | 2.4 µM | 2.8 µM | 2.4 µM | 2.4 µM | 2.4 µM | 2.4 µM | 2.4 µM | MBC [3]: 38.4 µM; MIC [3]: 9.6 µM; Membrane damage, live/dead SYTO 9/PI staining (E. coli): high presence of red-stained cells indicative of damaged membranes
RRRRFFFF [Peptide R4F4] | – | – | – | – | – | – | – | – | – | – | – | – | – | – | – | – | – | – | – | – | MBC (S. aureus (ATCC12600); ATCC12600): 250 µM; MIC (S. aureus (ATCC12600); ATCC12600, 24 h): 125 µM; MBC (P. aeruginosa (PA01) [1]): 250 µM; MIC (P. aeruginosa (PA01) [1]): 125 µM; Stability with trypsin (LC chromatogram and mass spectrum) [5]: degraded into smaller fragments; EC50 (L929 fibroblasts): 481 µM

— publication PMC12873548, “D-amino acid substitution and cyclization enhance the stability and antimicrobial activity of arginine-rich peptides” (Microbiology, 2026)
